In data set [1] the test system is 3T3-L1. Description: Cytotoxicity against mouse 3T3-L1 pre-adipocyte cells assessed as reduction in cell viability >20 uM incubated for 48 hrs by MTT assay. It counts as toxicity, cell-based. The settings on record: 3t3-l1, 48 h. In general terms: Tetrazolium dyes change colour on reduction, which living cells bring about.
Data set [2] has as its system 3T3-L1. Description: Anti-adipogenic activity in MDI-cocktail differentiated mouse 3T3-L1 pre-adipocyte cells assessed as inhibition of adipogenesis at 20 uM by Oil Red O staining based microscopic analysis relative to control. It counts as functional.
In data set [3] the test system is 3T3-L1. As to the kind of experiment: Cytotoxicity against mouse 3T3-L1 pre-adipocyte cells assessed as reduction in cell viability at 20 uM incubated for 48 hrs by MTT assay. It counts as toxicity, cell-based. The settings on record: 3t3-l1, 48 h.
The test system of data set [4] is 3T3-L1. Description: Anti-adipogenic activity in MDI-cocktail differentiated mouse 3T3-L1 pre-adipocyte cells assessed as inhibition of adipogenesis at 30 uM by Oil Red O staining based microscopic analysis. It counts as functional, cell-based.
Data set [5] has as its system 3T3-L1. As to the kind of experiment: Anti-adipogenic activity in MDI-cocktail differentiated mouse 3T3-L1 pre-adipocyte cells assessed as inhibition of adipogenesis by Oil Red O staining based microscopic analysis. It counts as functional, cell-based.

Calls of active or inactive are those of the source. No cut-off for these calls is given here.

One may read the inhibition as the change of the read-out against control, counted positive when it falls. For `Cc1cccc(C[n+]2cccc(-c3ncc(-c4ccc(Cl)cc4)o3)c2)c1.[Br-]`, the results for the Activity result in data set [1] and in data set [3] were “Toxic” and “Non-Toxic”, respectively. In data set [2], the inhibition at 20 µM was greater than 70%.

With `COc1ccc(-c2cnc(-c3ccc[n+](Cc4ccc(F)cc4)c3)o2)cc1.[Br-]`, the Activity entry in data set [1] is “Toxic”.

Turning to `CC(C)=CC[n+]1cccc(-c2ncc(-c3ccc(Cl)cc3)o2)c1.[Br-]`, the Activity result in data set [1] is “Toxic”.

Turning to `COc1ccc(-c2cnc(-c3ccc[n+](Cc4ccc(C(F)(F)F)cc4)c3)o2)cc1.[Br-]`, the Activity result in data set [1] is listed as “Toxic”.

On to `COc1ccc(-c2cnc(-c3ccc[n+](Cc4cccc(C)c4)c3)o2)cc1.[Br-]`, for which the Activity entry in data set [1] is given as “Toxic”.

In the case of `Br.O=[N+]([O-])c1ccc(C[n+]2cccc(-c3ncc(-c4ccc(Cl)cc4)o3)c2)cc1`, the Activity entry in data set [1] is “Toxic”.

On to `CC(C)=CCC/C(C)=C\C[n+]1cccc(-c2ncc(-c3ccc(C)cc3)o2)c1.[Br-]`, for which the Activity entry in data set [1] and in data set [3] was “Toxic” throughout.

For the compound `CC(C)=CCC/C(C)=C\C[n+]1cccc(-c2ncc(-c3ccc(Cl)cc3)o2)c1.[Br-]`, the Activity entry in data set [1] and in data set [3] was “Toxic” throughout.

`CC(C)=CC[n+]1cccc(-c2ncc(-c3ccc(C)cc3)o2)c1.[Br-]`: the Activity result in data set [1] and in data set [3] was “Toxic” each time.

As to `CC(C)=CCOc1ccc(-c2cnc(-c3cccnc3)o2)cc1`, the outcome in data set [4] was Active. The IC50 is 103 µM in data set [5] (read-out: IC50) and 104 µM in data set [5] (read-out: pIC50 (converted)).

With `Clc1ccc(C[n+]2cccc(-c3ncc(-c4ccc(Cl)cc4)o3)c2)cc1.[Br-]`, in data set [1], the Activity result was “Toxic”.

Take `Fc1ccc(C[n+]2cccc(-c3ncc(-c4ccc(Cl)cc4)o3)c2)cc1.[Br-]`: the Activity result in data set [1] is “Toxic”.

`Br.COc1ccc(-c2cnc(-c3ccc[n+](Cc4ccc([N+](=O)[O-])cc4)c3)o2)cc1`: the Activity entry in data set [1] is “Toxic”.

On to `Cc1ccc(-c2cnc(-c3ccc[n+](Cc4ccc(Cl)cc4)c3)o2)cc1.[Br-]`, for which the Activity result in data set [1] is on record as “Toxic”.

For `COc1ccc(-c2cnc(-c3ccc[n+](Cc4ccc(Cl)cc4)c3)o2)cc1.[Br-]`, the Activity entry in data set [1] is reported as “Toxic”.

`Cc1ccc(-c2cnc(-c3ccc[n+](Cc4ccc(Cl)c(Cl)c4)c3)o2)cc1.[Br-]`: the Activity entry in data set [1] and in data set [3] was “Toxic” in each case.

Take `Fc1ccc(C[n+]2cccc(-c3ncc(-c4ccccc4)o3)c2)cc1.[Br-]`: the Activity entry in data set [1] was “Toxic”.

With `COc1ccc(-c2cnc(-c3ccc[n+](Cc4ccc(Cl)c(Cl)c4)c3)o2)cc1.[Br-]`, the Activity result in data set [1] was “Toxic”; in data set [3], “Non-Toxic”. Further, in data set [2], the inhibition at 20 µM is greater than 70%.

Take `Cc1ccc(-c2cnc(-c3ccc[n+](Cc4ccc(C(F)(F)F)cc4)c3)o2)cc1.[Br-]`: the Activity entry in data set [1] was “Toxic”; in data set [3], “Non-Toxic”. In data set [2], the inhibition at 20 µM is greater than 70%.

`Br.Cc1ccc(-c2cnc(-c3ccc[n+](Cc4ccc([N+](=O)[O-])cc4)c3)o2)cc1`: the Activity entry in data set [1] is given as “Toxic”.

Consider `Cc1ccc(-c2cnc(-c3ccc[n+](Cc4ccc(F)cc4)c3)o2)cc1.[Br-]`, for which the Activity entry in data set [1] is “Toxic”.

In the case of `Clc1ccc(C[n+]2cccc(-c3ncc(-c4ccccc4)o3)c2)cc1.[Br-]`, the Activity result in data set [1] is listed as “Toxic”.

For the compound `CC(C)=CC[n+]1cccc(-c2ncc(-c3ccccc3)o2)c1.[Br-]`, the Activity entry in data set [1] is given as “Toxic”.

As to `Clc1ccc(C[n+]2cccc(-c3ncc(-c4ccccc4)o3)c2)cc1Cl.[Br-]`, the Activity result is given as “Toxic” in data set [1] and “Non-Toxic” in data set [3]. In data set [2], the inhibition at 20 µM is greater than 70%.

Turning to `Clc1ccc(-c2cnc(-c3ccc[n+](Cc4ccc(Cl)c(Cl)c4)c3)o2)cc1.[Br-]`, the Activity entry in data set [1] and in data set [3] was “Toxic” each time.

As to `COc1ccc(-c2cnc(-c3ccc[n+](CC=C(C)C)c3)o2)cc1.[Br-]`, in data set [1], the Activity entry was “Toxic”.

With `FC(F)(F)c1ccc(C[n+]2cccc(-c3ncc(-c4ccccc4)o3)c2)cc1.[Br-]`, the Activity entry in data set [1] is listed as “Toxic”.

Regarding `Br.O=[N+]([O-])c1ccc(C[n+]2cccc(-c3ncc(-c4ccccc4)o3)c2)cc1`, in data set [1], the Activity entry is given as “Toxic”.

For `Cc1cccc(C[n+]2cccc(-c3ncc(-c4ccccc4)o3)c2)c1.[Br-]`, in data set [1], the Activity entry is listed as “Toxic”.

In the case of `FC(F)(F)c1ccc(C[n+]2cccc(-c3ncc(-c4ccc(Cl)cc4)o3)c2)cc1.[Br-]`, the Activity entry in data set [1] is on record as “Toxic”.

For `COc1ccc(-c2cnc(-c3ccc[n+](C/C=C(/C)CCC=C(C)C)c3)o2)cc1.[Br-]`, the Activity entry in data set [1] and in data set [3] was “Toxic” each time.

These data come from ChEMBL document CHEMBL5634151, “Anti-adipogenic action of a novel oxazole derivative through activation of AMPK pathway” (Eur J Med Chem, 2023).
